The numbers were not newly measured in patent EP4260848A1, “PHARMACEUTICAL COMPOSITION FOR SOLID DOSAGE FORM CONTAINING NILOTINIB AND PROCESS FOR ITS PREPARATION” (Lotus Pharmaceutical Co., Ltd., priority 2022, dated 2023), which cites them from elsewhere.

Where a name gives a salt, the structure may show the parent alone.

Experiment in series [1]: not given
The source holds these as a separate data set.

Turning to `Cc1cn(-c2cc(NC(=O)c3ccc(C)c(Nc4nccc(-c5cccnc5)n4)c3)cc(C(F)(F)F)c2)cn1` [Nilotinib hydrochloride], the aqueous solubility entry (all solid forms (anhydrates, hydrates, solvates)) is “poor aqueous solubility”.
`Cc1cn(-c2cc(NC(=O)c3ccc(C)c(Nc4nccc(-c5cccnc5)n4)c3)cc(C(F)(F)F)c2)cn1` [Nilotinib, 4-methyl-N-[3-(4-methylimidazol-1-yl)-5-(trifluoromethyl)phenyl]-3-[(4-pyridin-3-ylpyrimidin-2-yl)amino]benzamide]: in series [1] (determined), the pKa1 is recorded as 2.1. The pKa2 in series [1] (estimated) is on record as 5.4. Besides, the “solubility in aqueous solutions” value (dependence on pH) is reported as “decreases with increasing pH”.
